From ChEMBL document CHEMBL5678814, “Novel Mps1 Kinase Inhibitors with Potent Antitumor Activity” (Mol Cancer Ther, 2016) come the findings set out here.

One data set has as its system NCI-H2452. Put plainly: Antiproliferative activity against human NCI-H2452 cells assessed as cell growth inhibition incubated for 96 hrs by crystal violet staining. To be noted: NCI-H2452, 96 h.
Data set [1] in a line: Antiproliferative activity against human HeLa-MaTu cells assessed as cell growth inhibition incubated for 96 hrs by crystal violet staining.
Data set [2] is described as follows: Cmax in female NMRI mouse plasma at 1 mg/kg, po measured after 24 hrs by LC/-MS/MS analysis.
The subject of the next data set is NCI-H1770. The experiment in a line: Antiproliferative activity against human NCI-H1770 cells assessed as cell growth inhibition incubated for 96 hrs by crystal violet staining. To be noted: NCI-H1770, 96 h.
Another data set deals with LoVo. Put plainly: Antiproliferative activity against human LoVo cells assessed as cell growth inhibition incubated for 96 hrs by crystal violet staining.
The next data set has as its system MSTO-211H. Put plainly: Antiproliferative activity against human MSTO-211H cells assessed as cell growth inhibition incubated for 96 hrs by crystal violet staining.
The next data set relates to HT-1376. Put plainly: Antiproliferative activity against human HT-1376 cells assessed as cell growth inhibition incubated for 96 hrs by MTS assay. The data set is classed as functional, cell-based. To be noted: HT-1376, 96 h. (In general: Formazan colour is commonly taken as a measure of viable cells.)
For a further data set, the system named is NCI-H2030. The experiment in a line: Antiproliferative activity against human NCI-H2030 cells assessed as cell growth inhibition incubated for 96 hrs by crystal violet staining. To be noted: NCI-H2030, 96 h.
Another data set deals with NCI-H647. Put plainly: Antiproliferative activity against human NCI-H647 cells assessed as cell growth inhibition incubated for 96 hrs by MTS assay. To be noted: NCI-H647, 96 h. Type of data set: functional, cell-based.

One may read the IC50 as the concentration needed to halve the response being measured. As usually defined, the Cmax is the maximum level reached in the sampled fluid or tissue. For `COc1cc(S(C)(=O)=O)ccc1Nc1nc2ccc(-c3ccc(NC(=O)[C@H](C)c4ccc(F)cc4)cc3)cn2n1` [BAY-1161909], the half-inhibitory concentration (IC50) is 120 nM with NCI-H2452; 200 nM in [1]; 100 nM with NCI-H1770; 95 nM in the data set on LoVo; 70 nM in the data set with MSTO-211H; 3000 nM in the data set with HT-1376. The IC50 turned out to be 700 nM in the data set on NCI-H2030 and 570 nM with NCI-H647. Moreover, in data set [2], the Cmax is 120 ng/mL.
